Experiments:
[1] = Therapeutic index, ratio of CC50 for human MT4 cells to EC50 for HIV-1 NL4-3 infected in human MT4 cells; format: toxicity, cell-based; settings: read-out: Ratio CC50/EC50
[2] = Cytotoxicity against human MT4 cells assessed as reduction in cell viability after 5 days by MTT assay; format: cell-based
[3] = tested on: Human immunodeficiency virus 1; assay: Antiviral activity against HIV-1 IRLL98 harboring reverse transcriptase M41L, D67N, Y181C, M184V, R211K, and T215Y mutants infected in human MT4 cells assessed as inhibition of virus-induced cytopathic effect after 5 days by MTT assay; format: functional, organism-based; settings: Human immunodeficiency virus 1, IRLL98, MT4, 120 h
[4] = tested on: Human immunodeficiency virus 1; assay: Antiviral activity against HIV-1 harboring reverse transcriptase K103N/Y181C double mutant infected in human MT4 cells assessed as inhibition of virus-induced cytopathic effect after 5 days by MTT assay; format: functional, organism-based; settings: Human immunodeficiency virus 1, MT4, 120 h
[5] = tested on: Human immunodeficiency virus 1; assay: Resistance index, ratio of EC50 for HIV-1 IRLL98 harboring reverse transcriptase M41L, D67N, Y181C, M184V, R211K, and T215Y mutants to EC50 for wild type HIV-1 NL4-3; format: functional
[6] = tested on: Human immunodeficiency virus 1; assay: Resistance index, ratio of EC50 for HIV-1 harboring reverse transcriptase K103N/Y181C double mutant to EC50 for wild type HIV-1 NL4-3; format: functional
[7] = tested on: Human immunodeficiency virus 1; assay: Antiviral activity against wild type HIV 1 NL4-3 infected in human MT4 cells assessed as inhibition of virus-induced cytopathic effect after 5 days by MTT assay; format: functional, organism-based; settings: Human immunodeficiency virus 1, NL4-3, MT4, 120 h
[8] = tested on: Human immunodeficiency virus 1; assay: Antiviral activity against HIV 1 harboring reverse transcriptase Y181C mutant infected in human MT4 cells assessed as inhibition of virus-induced cytopathic effect after 5 days by MTT assay; format: functional, organism-based; settings: Human immunodeficiency virus 1, MT4, 120 h
[9] = tested on: Human immunodeficiency virus 1; assay: Antiviral activity against HIV-1 harboring reverse transcriptase K103N mutant infected in human MT4 cells assessed as inhibition of virus-induced cytopathic effect after 5 days by MTT assay; format: functional, organism-based; settings: Human immunodeficiency virus 1, MT4, 120 h
[10] = tested on: Human immunodeficiency virus 1; assay: Resistance index, ratio of EC50 for HIV-1 harboring reverse transcriptase Y181C mutant to EC50 for wild type HIV-1 NL4-3; format: functional
[11] = tested on: Human immunodeficiency virus 1; assay: Resistance index, ratio of EC50 for HIV-1 harboring reverse transcriptase Y188L mutant to EC50 for wild type HIV-1 NL4-3; format: functional
[12] = tested on: Human immunodeficiency virus 1; assay: Resistance index, ratio of EC50 for HIV-1 harboring reverse transcriptase K103N mutant to EC50 for wild type HIV-1 NL4-3; format: functional
[13] = molecular target: Human immunodeficiency virus type 1 reverse transcriptase (Human immunodeficiency virus 1) (UniProt Q72547)
Description: Inhibition of recombinant wild type HIV-1 His-tagged reverse transcriptase p66/p51 expressed in Escherichia coli assessed as reduction in [3H]dTTP incorporation using poly(rA)/oligo(dT) as template/primer after 20 mins by scintillation counting analysis

[14] = tested on: Human immunodeficiency virus type 1 reverse transcriptase (Human immunodeficiency virus 1), Q72547 [K103N]
Description: Inhibition of recombinant HIV-1 His-tagged reverse transcriptase p66/p51 K103N mutant expressed in Escherichia coli assessed as reduction in [3H]dTTP incorporation using poly(rA)/oligo(dT) as template/primer after 20 mins by scintillation counting analysis

[15] = tested on: Human immunodeficiency virus 1; assay: Antiviral activity against HIV-1 harboring reverse transcriptase Y188L mutant infected in human MT4 cells assessed as inhibition of virus-induced cytopathic effect after 5 days by MTT assay; format: functional, organism-based; settings: Human immunodeficiency virus 1, MT4, 120 h
[16] = tested on: Human immunodeficiency virus 1; assay: Resistance index, ratio of ID50 for recombinant HIV-1 His-tagged reverse transcriptase p66/p51 Y181I mutant to ID50 for recombinant wild type HIV-1 reverse transcriptase His-tagged p66/p51
[17] = tested on: Human immunodeficiency virus 1; assay: Resistance index, ratio of ID50 for recombinant HIV-1 His-tagged reverse transcriptase p66/p51 L100I mutant to ID50 for recombinant wild type HIV-1 reverse transcriptase His-tagged p66/p51
[18] = tested on: Human immunodeficiency virus type 1 reverse transcriptase (Human immunodeficiency virus 1), Q72547 [Y181I]
[19] = tested on: Human immunodeficiency virus type 1 reverse transcriptase (Human immunodeficiency virus 1), Q72547 [L100I]
[20] = tested on: Human immunodeficiency virus 1; assay: Resistance index, ratio of ID50 for recombinant HIV-1 His-tagged reverse transcriptase p66/p51 K103N mutant to ID50 for recombinant wild type HIV-1 reverse transcriptase His-tagged p66/p51
[21] = tested on: Human immunodeficiency virus 1; assay: Potency index, ratio of EFV EC50 to compound EC50 for HIV-1 IRLL98 harboring reverse transcriptase M41L, D67N, Y181C, M184V, R211K, and T215Y mutants infected in human MT4 cells; format: functional
[22] = tested on: Human immunodeficiency virus 1; assay: Potency index, ratio of TMC120 EC50 to compound EC50 for HIV-1 IRLL98 harboring reverse transcriptase M41L, D67N, Y181C, M184V, R211K, and T215Y mutants infected in human MT4 cells; format: functional
[23] = tested on: Human immunodeficiency virus 1; assay: Potency index, ratio of EFV EC50 to compound EC50 for HIV-1 harboring reverse transcriptase K103N/Y181C double mutant infected in human MT4 cells; format: functional

`CCC(C)Sc1nc(C(C)c2c(F)cccc2Cl)c(C)c(=O)[nH]1` (centres undefined) showed a selectivity ratio [1] greater than 5000, a CC50 at 120 h [2] greater than 1500 nM and an EC50 [3] of 95 nM. The EC50 [4] was 410 nM, the “Ratio EC50” value [5] was 317 and the “Ratio EC50” value [6] was 1367.

`Cc1cc(C#N)cc(C)c1Oc1nc(Nc2ccc(C#N)cc2)nc(N)c1Br` [ETRAVIRINE] showed a selectivity ratio [1] of 7000, an EC50 [7] of 0.5 nM and a CC50 at 120 h [2] of 3500 nM. For the same compound, the EC50 [8] was 9 nM, the EC50 [9] was 2 nM and the “Ratio EC50” value [10] was 18. The “Ratio EC50” value [11] was 40, the “Ratio EC50” value [12] was 4 and the “Ratio EC50” value [6] was 38. It also gave an ID50 [13] of 6 nM and an ID50 [14] of 85 nM.

Compound `Cc1c(C(C)c2c(F)cccc2F)nc(NC2CCCC2)[nH]c1=O` (centres undefined) has a selectivity ratio [1] of 3600, an EC50 [7] of 25 nM and a CC50 at 120 h [2] of 90000 nM. The EC50 [3] was 85 nM, the EC50 [8] was 220 nM and the EC50 [15] was 950 nM. For the same compound, the EC50 [9] was 410 nM, the EC50 [4] was 420 nM and the “Ratio EC50” value [5] was 3. For the same compound, the “Ratio EC50” value [10] was 9, the “Ratio EC50” value [11] was 38 and the “Ratio EC50” value [12] was 16. The “Ratio EC50” value [6] was 17, the Ratio [16] was 57 and the Ratio [17] was 17. For the same compound, the ID50 [13] was 30 nM, the ID50 [14] was 380 nM and the ID50 [18] was 1700 nM. For the same compound, the ID50 [19] was 500 nM.

Compound `CCCN(C)c1nc(C(OC)c2c(Cl)cccc2Cl)c(C)c(=O)[nH]1` (centres undefined) has a selectivity ratio [1] of 70800 to 78700, an EC50 [7] of 0.9 to 1 nM and a CC50 at 120 h [2] of 70800 nM. The EC50 [3] was 2 nM, the EC50 [8] was 11 to 14 nM and the EC50 [15] was 30 to 35 nM. The EC50 [9] was 6 to 7 nM, the EC50 [4] was 31 nM and the “Ratio EC50” value [5] was 2. The “Ratio EC50” value [10] was 11 - 16, the “Ratio EC50” value [11] was 30 - 39 and the “Ratio EC50” value [12] was 7. For the same compound, the “Ratio EC50” value [6] was 34, the Ratio [20] was 2 and the Ratio [16] was 46 to 47. For the same compound, the Ratio [17] was 21 to 23, the “Ratio EC50” value [21] was 2000 - 3000 and the “Ratio EC50” value [22] was 3 - 10. For the same compound, the “Ratio EC50” value [23] was 5 - 15, the ID50 [13] was 16 to 18 nM and the ID50 [14] was 38 to 42 nM. The ID50 [18] was 740 to 840 nM and the ID50 [19] was 340 to 420 nM.

Work on `COC(c1nc(NC2CCCC2)[nH]c(=O)c1C)c1c(F)cccc1F` (centres undefined) yielded a selectivity ratio [1] of 82900 to 93200, an EC50 [7] of 0.8 to 0.9 nM and a CC50 at 120 h [2] of 74600 nM. The EC50 [3] was 2 nM, the EC50 [8] was 69 to 75 nM and the EC50 [15] was 700 to 740 nM. The EC50 [9] was 5 to 6 nM, the EC50 [4] was 77 nM and the “Ratio EC50” value [5] was 2. The “Ratio EC50” value [10] was 83 - 86, the “Ratio EC50” value [11] was 822 - 875 and the “Ratio EC50” value [12] was 6 - 7. For the same compound, the “Ratio EC50” value [6] was 85, the Ratio [20] was 3 and the Ratio [16] was 57. For the same compound, the Ratio [17] was 23, the “Ratio EC50” value [21] was 2000 - 3000 and the “Ratio EC50” value [22] was 3 - 10. For the same compound, the “Ratio EC50” value [23] was 5 - 15, the ID50 [13] was 15 nM and the ID50 [14] was 39 nM. For the same compound, the ID50 [18] was 850 nM and the ID50 [19] was 350 nM.

`O=C1Nc2ccc(Cl)cc2[C@@](C#CC2CC2)(C(F)(F)F)O1` [EFAVIRENZ] gave a CC50 at 120 h [2] greater than 3000 nM, an EC50 [3] of 630 nM and an EC50 [8] of 44 nM. It also gave an EC50 [9] of 390 nM and an EC50 [4] of 400 nM.

For `COC(c1nc(SC(C)C)[nH]c(=O)c1C)c1c(F)cccc1Cl` (centres undefined), the selectivity ratio [1] was 140000 to 233000, the EC50 [7] was 0.3 to 0.5 nM and the CC50 at 120 h [2] was greater than 70000 nM. It also gave an EC50 [3] of 1 nM, an EC50 [8] of 25 to 45 nM and an EC50 [15] of 52 to 72 nM. The EC50 [9] was 6 to 8 nM, the EC50 [4] was 46 nM and the “Ratio EC50” value [5] was 2. For the same compound, the “Ratio EC50” value [10] was 83 - 90, the “Ratio EC50” value [11] was 144 - 173 and the “Ratio EC50” value [12] was 16 - 20. The “Ratio EC50” value [6] was 92, the Ratio [20] was 18 to 20 and the Ratio [16] was 320 to 375. For the same compound, the Ratio [17] was 190 to 225, the “Ratio EC50” value [21] was 2000 - 3000 and the “Ratio EC50” value [22] was 3 - 10. For the same compound, the “Ratio EC50” value [23] was 5 - 15, the ID50 [13] was 4 to 5 nM and the ID50 [14] was 81 to 89 nM. For the same compound, the ID50 [18] was 1500 to 1600 nM and the ID50 [19] was 900 to 950 nM.

With `CCC(C)Sc1nc(C(OC)c2c(F)cccc2Cl)c(C)c(=O)[nH]1` (centres undefined) the selectivity ratio [1] was 264000, the EC50 [7] was 0.2 nM and the CC50 at 120 h [2] was 52800 nM. For the same compound, the EC50 [3] was 0.6 nM, the EC50 [8] was 27 nM and the EC50 [15] was 55 nM. The EC50 [9] was 1 nM, the EC50 [4] was 28 nM and the “Ratio EC50” value [5] was 3. For the same compound, the “Ratio EC50” value [10] was 135, the “Ratio EC50” value [11] was 275 and the “Ratio EC50” value [12] was 5. For the same compound, the “Ratio EC50” value [6] was 140, the Ratio [20] was 13 and the Ratio [16] was 711. For the same compound, the Ratio [17] was 133, the “Ratio EC50” value [21] was 2000 - 3000 and the “Ratio EC50” value [22] was 3 - 10. For the same compound, the “Ratio EC50” value [23] was 5 - 15, the ID50 [13] was 0.9 nM and the ID50 [14] was 12 nM. It also gave an ID50 [18] of 640 nM and an ID50 [19] of 120 nM.

For `Cc1c(C(C)c2c(F)cccc2Cl)nc(SC(C)C)[nH]c1=O` (centres undefined), the selectivity ratio [1] was greater than 375000, the CC50 at 120 h [2] was greater than 15000 nM and the EC50 [3] was 75 nM. The EC50 [4] was 270 nM, the “Ratio EC50” value [5] was 1875 and the “Ratio EC50” value [6] was 6750.

From ChEMBL document CHEMBL4371047, “Effect of α-Methoxy Substitution on the Anti-HIV Activity of Dihydropyrimidin-4(3 H)-ones” (J Med Chem, 2019)
